The numbers were not newly measured in patent publication US20210106004A1, “THERMOPLASTIC MATERIALS HAVING BENEFICIAL PROPERTIES AND PROCESSES FOR PROVIDING THE SAME” (QuadSil, Inc., priority 2016, published 2021), which cites them from elsewhere.

For the data set the following is noted: background statement.

For the compound `CCCCCCCCCCCCCCCCCC[N+](C)(C)CCC[Si](OC)(OC)OC.[Cl-]` [3-(trimethoxysilyl) propyldimethyloctadecyl ammonium chloride], the “temperature at which thermal decomposition begins” value was 125 °C.
